In patent US11414431B2, “Substituted pyrazolo[1,5-a]pyrimidines as TYK2 inhibitors” (Nimbus Lakshmi, Inc., priority 2018, dated 2022):

Columns and labels:
[1] = biological target: human TYK2 (JH2domain-pseudokinase) (Homo sapiens (Human), UniProt P29597); assay: TYK2 JH2 Domain Binding Assay (KINOMEscan); details: 11-point 3-fold dilution, top concentration 30,000 nM, duplicate; read-out: hTYK2_JH2_Binding (Kd; nM)
Method in brief: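 KINOMEscan competition binding: HEK293-expressed NFkB-fused TYK2 JH2 (G556–D888), DNA-tagged, against immobilized ligand beads, 1 h shaking at room temperature, 0.9% DMSO. Bound kinase quantified by qPCR.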

TYK2 = TYK2 (Homo sapiens (Human), UniProt P29597); assay: TYK2 Radioactive Kinase Assay; type: biochemical; details: compound at 10 μM; peptide substrate […]; read-out: TYK2 (% Inhibition at 10 μM)
JAK2 = JAK2 (Homo sapiens (Human), UniProt O60674); assay: JAK2 Radioactive Kinase Assay; type: biochemical; details: compound at 10 μM; substrate poly[Glu:Tyr] (4:1); read-out: JAK2 (% Inhibition at 10 μM)
Procedure: Peptide substrate, [[…]], (20 μM) was prepared in reaction buffer (20 mM Hepes pH 7.5, 10 mM MgCl2, 1 mM EGTA, 0.02% Brij35, 0.02 mg/mL BSA, 0.1 mM […], 2 mM DTT, 1% DMSO. TYK2 (Invitrogen) kinase was added, followed by compounds in DMSO. 33PATP was added to initiate the reaction in ATP at […]. Kinase reaction was incubated for 120 min at room temp and reactions were spotted onto P^81 ion exchange paper (Whatman #3698-915), and then washed extensively in 0.75% phosphoric acid, prior to reading the radioactivity counts. For JAK2 (Invitrogen) kinase assay the peptide substrate poly[Glu:Tyr] (4:1), 0.2 mg/mL was used, in the reaction carried out the same as for TYK2.

[2] = test system: IL-12 induced STAT4 phosphorlyation mediated by TYK2/JAK2; assay: IL-12 Induced pSTAT4 in Human PBMC; type: cell-based; details: 0.5 h, 1.7 ng/mL IL-12 for 30 minutes
Method in brief: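 pSTAT4 and total STAT4 quantified by MSD in lysates of cryopreserved human PBMC after 30-minute stimulation with 1.7 ng/mL IL-12 (final). Compound was added 1 hr beforehand at 37° C, 0.1% DMSO final.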

human TYK2 (JH2domain-pseudokinase), sequence (P29597 556-888): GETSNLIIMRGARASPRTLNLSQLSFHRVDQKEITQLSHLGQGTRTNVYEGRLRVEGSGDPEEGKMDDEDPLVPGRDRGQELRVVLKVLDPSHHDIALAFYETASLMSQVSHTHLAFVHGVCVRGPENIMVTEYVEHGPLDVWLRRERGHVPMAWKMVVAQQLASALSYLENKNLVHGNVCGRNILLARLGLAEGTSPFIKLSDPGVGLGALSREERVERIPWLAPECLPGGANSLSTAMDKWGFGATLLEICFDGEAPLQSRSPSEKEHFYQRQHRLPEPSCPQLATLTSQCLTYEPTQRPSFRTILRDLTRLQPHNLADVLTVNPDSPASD
TYK2, sequence (P29597 whole entry): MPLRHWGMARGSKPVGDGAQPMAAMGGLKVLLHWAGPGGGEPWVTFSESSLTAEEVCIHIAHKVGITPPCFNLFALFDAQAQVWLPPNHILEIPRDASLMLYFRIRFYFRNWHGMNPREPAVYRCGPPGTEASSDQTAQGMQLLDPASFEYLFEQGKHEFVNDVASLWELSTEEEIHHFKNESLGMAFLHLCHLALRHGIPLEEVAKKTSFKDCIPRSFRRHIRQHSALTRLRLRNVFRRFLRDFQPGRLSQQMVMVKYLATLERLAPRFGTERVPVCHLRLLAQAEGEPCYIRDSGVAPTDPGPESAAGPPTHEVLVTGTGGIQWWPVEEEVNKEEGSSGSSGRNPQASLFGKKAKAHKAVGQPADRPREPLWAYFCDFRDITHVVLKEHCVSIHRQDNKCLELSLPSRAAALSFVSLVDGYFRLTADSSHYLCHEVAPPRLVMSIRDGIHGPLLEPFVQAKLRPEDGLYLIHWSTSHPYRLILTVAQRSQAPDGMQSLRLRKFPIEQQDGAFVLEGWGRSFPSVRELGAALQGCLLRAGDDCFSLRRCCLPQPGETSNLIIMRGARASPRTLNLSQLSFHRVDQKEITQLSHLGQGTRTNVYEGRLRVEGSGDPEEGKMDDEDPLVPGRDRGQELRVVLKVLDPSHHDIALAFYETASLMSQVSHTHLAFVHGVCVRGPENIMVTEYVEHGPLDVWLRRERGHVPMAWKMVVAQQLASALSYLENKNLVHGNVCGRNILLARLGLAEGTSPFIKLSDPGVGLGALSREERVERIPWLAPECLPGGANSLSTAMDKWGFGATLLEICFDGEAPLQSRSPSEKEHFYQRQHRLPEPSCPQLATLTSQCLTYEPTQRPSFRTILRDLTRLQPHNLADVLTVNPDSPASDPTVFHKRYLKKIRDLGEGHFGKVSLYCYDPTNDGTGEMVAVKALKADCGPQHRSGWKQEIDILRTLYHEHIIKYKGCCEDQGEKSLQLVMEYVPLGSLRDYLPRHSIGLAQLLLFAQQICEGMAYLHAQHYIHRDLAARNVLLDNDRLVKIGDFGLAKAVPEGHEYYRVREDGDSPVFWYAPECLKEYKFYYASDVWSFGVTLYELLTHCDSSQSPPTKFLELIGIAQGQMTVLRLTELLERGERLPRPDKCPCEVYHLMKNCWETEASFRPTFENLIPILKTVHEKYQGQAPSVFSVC
JAK2, sequence (O60674 whole entry): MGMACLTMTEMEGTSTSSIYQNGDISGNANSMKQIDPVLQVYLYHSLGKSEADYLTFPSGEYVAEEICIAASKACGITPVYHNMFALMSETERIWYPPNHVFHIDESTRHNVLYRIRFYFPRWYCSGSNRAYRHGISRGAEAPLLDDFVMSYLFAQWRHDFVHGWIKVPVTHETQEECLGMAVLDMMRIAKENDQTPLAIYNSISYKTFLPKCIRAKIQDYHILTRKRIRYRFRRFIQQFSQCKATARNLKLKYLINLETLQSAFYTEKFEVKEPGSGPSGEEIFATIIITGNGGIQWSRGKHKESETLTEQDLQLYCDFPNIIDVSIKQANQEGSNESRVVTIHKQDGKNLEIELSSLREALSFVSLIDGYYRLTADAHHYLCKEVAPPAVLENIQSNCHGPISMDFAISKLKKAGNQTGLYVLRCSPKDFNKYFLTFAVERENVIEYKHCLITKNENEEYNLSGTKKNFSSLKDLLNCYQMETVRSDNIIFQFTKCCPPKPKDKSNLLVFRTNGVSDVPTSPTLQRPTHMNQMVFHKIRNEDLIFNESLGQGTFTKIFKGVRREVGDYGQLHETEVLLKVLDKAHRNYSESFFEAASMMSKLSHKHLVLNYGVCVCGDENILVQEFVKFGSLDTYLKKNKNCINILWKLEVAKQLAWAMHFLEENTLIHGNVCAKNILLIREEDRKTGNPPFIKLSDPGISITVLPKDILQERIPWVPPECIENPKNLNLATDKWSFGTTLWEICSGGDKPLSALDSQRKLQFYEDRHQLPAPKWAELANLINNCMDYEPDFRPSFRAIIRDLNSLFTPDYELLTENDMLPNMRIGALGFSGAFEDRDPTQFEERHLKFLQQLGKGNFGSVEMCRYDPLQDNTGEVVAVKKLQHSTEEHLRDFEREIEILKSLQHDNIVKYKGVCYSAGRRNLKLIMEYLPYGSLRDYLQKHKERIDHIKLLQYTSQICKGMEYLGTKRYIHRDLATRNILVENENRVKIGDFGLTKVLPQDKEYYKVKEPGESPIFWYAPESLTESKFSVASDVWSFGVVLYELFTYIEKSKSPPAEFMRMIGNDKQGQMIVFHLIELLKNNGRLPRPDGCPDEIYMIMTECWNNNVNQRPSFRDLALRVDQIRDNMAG

## CNc1cc(Nc2cccn([C@@H]3CCOC[C@@H]3OC)c2=O)nc2c(-c3cn(C(C)C)nn3)cnn12 [Compound I-116, 3-((3-(1-Isopropyl-1H-1,2,3-triazol-4-yl)-7-(methylamino)pyrazolo[1,5-a]pyrimidin-5-yl)amino)-1-((3R,4R)-3-methoxytetrahydro-2H-pyran-4-yl)pyridin-2(1H)-one]
[1]
  Kd: 1 to 10 nM
TYK2
  inhibition at 10 µM: < 50%
JAK2
  inhibition at 10 µM: < 50%

## CNc1cc(Nc2cccn([C@H]3CCOC[C@H]3OC)c2=O)nc2c(-c3cn(C(C)C)nn3)cnn12 [Compound I-117, 3-((3-(1-Isopropyl-1H-1,2,3-triazol-4-yl)-7-(methylamino)pyrazolo[1,5-a]pyrimidin-5-yl)amino)-1-((3S,4S)-3-methoxytetrahydro-2H-pyran-4-yl)pyridin-2(1H)-one]
[1]
  Kd: > 10 nM
TYK2
  inhibition at 10 µM: < 50%
JAK2
  inhibition at 10 µM: < 50%

## CNc1cc(-c2cn(C3CCOCC3)c3ncc(F)cc23)nc2c(C(=O)N[C@@H]3CC[C@H]3O)cnn12 [Compound I-19, 5-(5-Fluoro-1-(tetrahydro-2H-pyran-4-yl)-1H-pyrrolo[2,3-b]pyridin-3-yl)-N-((1R,2R)-2-hydroxycyclobutyl)-7-(methylamino)pyrazolo[1,5-a]pyrimidine-3-carboxamide]
[1]
  Kd: 0.2 to 1 nM
TYK2
  inhibition at 10 µM: < 50%
JAK2
  inhibition at 10 µM: < 50%

## CNc1cc(Nc2cccn([C@H]3CCCOC3)c2=O)nc2c(C(=O)N[C@H]3CCC[C@](C)(OC)C3)cnn12 [Compound I-95, N-((1S,3S)-3-Methoxy-3-methylcyclohexyl)-7-(methylamino)-5-((2-oxo-1-((S)-tetrahydro-2H-pyran-3-yl)-1,2-dihydropyridin-3-yl)amino)pyrazolo[1,5-a]pyrimidine-3-carboxamide]
[1]
  Kd: 1 to 10 nM
TYK2
  inhibition at 10 µM: < 50%
JAK2
  inhibition at 10 µM: < 50%

## CNc1cc(Nc2cccn(C3CC(F)(F)C3)c2=O)nc2c(C(=O)N[C@@H]3CC[C@H](O)C3)cnn12 [Compound I-36, 5-((1-(3,3-Difluorocyclobutyl)-2-oxo-1,2-dihydropyridin-3-yl)amino)-N-((1R,3S)-3-hydroxycyclopentyl)-7-(methylamino)pyrazolo[1,5-a]pyrimidine-3-carboxamide]
[1]
  Kd: 0.2 to 1 nM
TYK2
  inhibition at 10 µM: < 50%
JAK2
  inhibition at 10 µM: < 50%

## CNc1cc(Nc2cccn(C3CC(F)(F)C3)c2=O)nc2c(C(=O)N[C@@H]3CC[C@H]3OC)cnn12 [Compound I-48, 5-((1-(3,3-Difluorocyclobutyl)-2-oxo-1,2-dihydropyridin-3-yl)amino)-N-((1R,2R)-2-methoxycyclobutyl)-7-(methylamino)pyrazolo[1,5-a]pyrimidine-3-carboxamide]
[1]
  Kd: < 0.2 nM
TYK2
  inhibition at 10 µM: < 50%
JAK2
  inhibition at 10 µM: < 50%
[2]
  IC50: < 0.1 µM

## CNc1cc(Nc2cccn(C3CCC[C@@](C)(O)C3)c2=O)nc2c(C(=O)NC3CC3)cnn12 (stereo in doubt) [Compound I-1, N-Cyclopropyl-5-((1-(3-hydroxy-3-methylcyclohexyl)-2-oxo-1,2-dihydropyridin-3-yl)amino)-7-(methylamino)pyrazolo[1,5-a]pyrimidine-3-carboxamide]
[1]
  Kd: < 0.2 nM
TYK2
  inhibition at 10 µM: < 50%
JAK2
  inhibition at 10 µM: < 50%
[2]
  IC50: > 1 µM

## CNc1cc(Nc2cccn(C3CC(F)(F)C3)c2=O)nc2c(C(=O)N[C@H]3CC[C@@H]3OC)cnn12 [Compound I-47, 5-((1-(3,3-Difluorocyclobutyl)-2-oxo-1,2-dihydropyridin-3-yl)amino)-N-((1S,2S)-2-methoxycyclobutyl)-7-(methylamino)pyrazolo[1,5-a]pyrimidine-3-carboxamide]
[1]
  Kd: > 10 nM
TYK2
  inhibition at 10 µM: < 50%
JAK2
  inhibition at 10 µM: < 50%

## CNc1cc(Nc2cccn(C3CC(F)(F)C3)c2=O)nc2c(C(=O)N[C@@H]3COC[C@@H]3O)cnn12 [Compound I-59, 5-((1-(3,3-Difluorocyclobutyl)-2-oxo-1,2-dihydropyridin-3-yl)amino)-N-((3R,4R)-4-hydroxytetrahydrofuran-3-yl)-7-(methylamino)pyrazolo[1,5-a]pyrimidine-3-carboxamide]
[1]
  Kd: 1 to 10 nM
TYK2
  inhibition at 10 µM: < 50%
JAK2
  inhibition at 10 µM: < 50%

## CNc1cc(Nc2cccn(-c3ccccn3)c2=O)nc2c(C(=O)N[C@H]3CC[C@H](OC)C3)cnn12 [Compound I-68, N-((1S,3S)-3-Methoxycyclopentyl)-7-(methylamino)-5-((2-oxo-2H-[1,2′-bipyridin]-3-yl)amino)pyrazolo[1,5-a]pyrimidine-3-carboxamide]
[1]
  Kd: […]
TYK2
  inhibition at 10 µM: < 50%
JAK2
  inhibition at 10 µM: < 50%
